Tests used:
[1] = tested on: HPV 18 positive adenocarcinoma cell (HeLa); conditions: cited from earlier work
gamma-H2AX in HeLa cells = assay: Immunofluorescent staining of gamma-H2AX; format: cell-based, human; conditions: oxaliplatin 5 μM 2 h plus 2 Gy, 15 min after radiation
Experimental: Immunofluorescent staining was used to determine radiation-induced expression of gamma-H2AX which is an indicator of DNA double-strand break. For immunofluorescent staining of gamma-H2AX, HeLa cervical cancer cells that were untreated (control), treated with oxaliplatin 5 μM for 2 h, irradiation of 2 Gy, and oxaliplatin plus irradiation, cells were harvested 15 min after radiation, stained with Rhodamine-conjugated gamma-H2AX antibody (red) and counterstained with DAPI (blue), respectively.

HeLa cells [2] = assay: Cell morphology (Wright's staining), mitotic catastrophe; format: cell-based, human
Experimental: After seeding for 24 h, HeLa cells were treated with various conditions including untreated control, oxaliplatin 5 μM for 2 h, radiation 2 Gy, and oxaliplatin 5 μM for 2 h followed by washing out and radiation 2 Gy. After these treatments, cell were cultured for further 24 h and then collected for Wright's staining and observation under a light microscope.

HeLa (HPV 18+) cells = assay: MTT cell viability assay; format: cell-based, human; conditions: 24 hours' exposure, MTT after 2 days in fresh medium
Source text: (§1) An ideal radiosensitizer means it enhances radiosensitivity at non-toxic dose, but not due to the combined toxicity of drug and radiation. Thus to determine the toxic effect of different oxaliplatin concentrations on human cervical cancer cells by using 3-(4,5-dimethylthiazol-2-yl)-2, S-diphenyl tetrazolium bromide (MTT) assay. This assay is commonly used to determine cell proliferation, percent of viable cells, and cytotoxicity. MTT is a yellow dye, which can be absorbed by the living cells and be reduced to purplish blue formazan crystals by succinate tetrazolium reductase in mitochondria. Formazan formation can therefore be used to assess and determine the survival rate of cells.
(§2) In preliminary work, the human cervical cancer cell lines HeLa (HPV 18+) and SiHa (HPV 16+) were obtained from American Type Culture Collection (Manassas, Va.). […]
(§3) The human cervical cancer cell lines HeLa (HPV 18+) and SiHa (HPV 16+) were separately cultivated in media containing various doses (0˜10 μM) of oxaliplatin for 24 hours. […] For the assay, the cells were incubated with the MTT (tetrazolium compounds) for 4 h, lysed with DMSO, and the color crystals were solubilized with an ELISA reader at a wavelength of 570 nm.

SiHa (HPV 16+) cells = assay: MTT cell viability assay; format: cell-based, human; conditions: 24 hours' exposure, MTT after 2 days in fresh medium
Source text: as §1, §2, §3

HeLa cells [3] = assay: Cell cycle distribution by propidium iodide staining and flow cytometry; format: cell-based, human
Experimental: To eliminate the potential contribution of cell cycle redistribution to the observed radiosensitization, flow cytometric analysis was performed to determine cell cycle progression after treatment of oxaliplatin. After treating cervical cancer cell line HeLa with 5 μM oxaliplatin for 2 h or 24 h after radiaton, drugs was washed out and cells were cultured for further 24 h. HeLa cells were harvested and fixed with 70% ethanol at 4° C. for 1 h. The cells were stained for 30 min with propidium iodide solution (containing propidium iodide, 0.5 mg/mL; RNAse, 0.1 mg/mL) from a CycleTEST PLUS DNA reagent kit (Becton Dickinson, Lincoln Park, N.J.). Analysis of the DNA content was performed using a FACScaliber flow cytometer (Becton Dickinson). The data from 10^4 cells were collected and analyzed using ModFit software (Becton Dickinson).

HeLa cells [4] = assay: Colony formation assay after oxaliplatin pretreatment and irradiation (radiation survival); format: cell-based, human
Experimental: (§4) To evaluate whether oxaliplatin treatment influenced the radiosensitivity of cervical cancer cells, this experiment treated HeLa and SiHa cells with oxaliplatin at various concentrations for 2 h prior to radiation survival assays in the invention.
(§5) Based on the above results of cell viability assessment, 0˜10 μM oxaliplatin was used to test for radiation sensitization. HeLa and SiHa were pretreated with various doses (0, 1.25, 5, and 10 μM) of oxaliplatin for 2 h, and the oxaliplatin was washed out before radiation delivery. Irradiation was performed with 6 MeV of electron beam by a linear accelerator (Clinac® 1800, Varian Associates, Inc.) with various doses (0.5, 1, 2 and 3 Gy) at a dose rate of 2.4 Gy/min in a single fraction. Full electron equilibrium was ensured for each fraction by a parallel plate PR-60C ionization chamber (CAPINTEL, Inc., Ramsey, N.J.). Following radiation, a colony formation assay was performed. The ionizing radition of the present invention used include, but not limited to, electron beam radition, photon, electron, gamma, alpha, beta, neutron, and proton radiation. Among them, electron beam radition is preferred.
(§6) Viable tumor cells (10^3) were plated onto culture dishes (35 mm^2) and allowed to grow in McCoy's 5A medium containing 20% heat-inactivated FCS and 0.24% agarose at 37° C. in a humidified 5% CO2 incubator. After 10 to 14 days, the resultant colonies were stained with 0.4% crystal violet and the colonies containing at least 50 cells were determined. The surviving fraction was calculated as the mean colonies/(cells inoculated×plating efficiency). The control plating efficiency for HeLa and SiHa cells was 40-60%. Survival curves were fitted by a linear-quadratic model. The sensitizer enhancement ratio (SER) was calculated as the radiation dose needed for radiation alone divided by the dose needed for oxaliplatin plus radiation to yield a surviving fraction of 37% (Do in radiobiology).
(§7) Statistical analysis was performed by analysis of variance when comparing the colony formation between different treatment conditions. All data were presented as mean ±standard error of the mean (SEM). SPSS 10.0 software (SPSS Inc, Chicago) was used for analysis of all the data. Statistical significance was assumed where the p value was less than 0.05.

SiHa cells = assay: as above; format: cell-based, human
Experimental: as §4, §5, §6, §7

[5] = tested on: pATM, pChk1, pChk2, Rad51 in HeLa cells; assay: Western blot of DNA damage repair molecules; format: cell-based, human; conditions: oxaliplatin 5 μM 2 h plus radiation 2 Gy
Experimental: For western blot analysis, HeLa cells were cultured with various treatments: untreated (control), oxaliplatin 5 μM for 2 h (oxaliplatin), radiation 2 Gy (RT alone) and oxaliplatin plus radiation (oxaliplatin+RT) for further 1 h and 6 h. Then, the cellular proteins were extracted, quantified and subjected to gel electrophoresis using 10% (wt/vol) SDS-polyacrylamide gels. Protein samples were then blotted onto polyvinylidene difluoride (PVDF) membranes (Bio-Rad, Hercules, Calif.). The membranes were probed with diluted primary antibodies and detected using horseradish peroxidase-conjugated anti-mouse IgG followed by the use of enhanced chemiluminescence kits (Amersham Pharmacia Biotech). Anti-actin antibody was used as an internal control.

[6] = oxaliplatin 5 μM 2 h, versus untreated

## N.N.[Cl][Pt][Cl] [cisplatin]
[1]
  effect of combination with radiation: no effect

## O=C1[O][Pt]2([NH][C@@H]3CCCC[C@H]3[NH]2)[O]C1=O [oxaliplatin]
gamma-H2AX in HeLa cells
  radiation-induced early expression of gamma-H2AX: reduced
HeLa cells [2]; between all groups
  percentages of apoptosis and necrosis: no marked changes
HeLa cells [2]; oxaliplatin 5 μM 2 h alone, untreated control 5.6±1.3%
  percentage cells with mitotic catastrophe: 27.3±2.2%
HeLa cells [2]; oxaliplatin 5 μM 2 h followed by radiation 2 Gy, radiation alone 16.7±3.2%
  percentage cells with mitotic catastrophe: 38.5±3.8%
HeLa (HPV 18+) cells
  highest non-toxic (cell viability>90%) dose: 5 µM
SiHa (HPV 16+) cells
  highest non-toxic (cell viability>90%) dose: 10 µM
HeLa cells [3]; [6]
  proportion in the G0/G1 phase: decreased
  proportion of cells in the S phase: remained unchanged
HeLa cells [3]; oxaliplatin 5 μM plus irradiation, irradiation alone 26.2%±3.7
  percentage of cells at G2/M phase: 32.3%±3.5
HeLa cells [4]; HeLa, oxaliplatin 5 μM for 2 h before radiation
  sensitizer enhancement ratio (SER) at 37% survival: 1.7
HeLa cells [4]; HeLa, oxaliplatin 10 μM for 2 h before radiation (maximal SER)
  sensitizer enhancement ratio (SER) at 37% survival: 3.4
HeLa cells [4]; HeLa, pretreatment at 5 and 10 μM, radiation 0.5-3 Gy
  survival of irradiated tumor cells compared to radiation only: markedly decreased
HeLa cells [4]; cervical cancer cell lines (HeLa and SiHa)
  enhancement of radiation efficiency versus radiation alone: 3.1-3.9 times
SiHa cells; oxaliplatin 2 h before radiation
  maximal sensitizer enhancement ratio (SER) at 37% survival: 4.8
SiHa cells; pretreatment at 5 and 10 μM, radiation 0.5-3 Gy
  survival of irradiated tumor cells compared to radiation only: markedly decreased
[5]
  Chk1 phosphorylation in irradiated cells: no effect
  expression of rad51 in irradiated cells: no effect
  radiation-augmented phosphorylation of Chk2: reduced
  radiation-induced expression of phosphorylated ATM: markedly reduced
